Key:
[1] = excess molar enthalpy (molar enthalpy of mixing); xn = mol fraction of the nth substance listed; details: 308.15 K, 101.3 kPa, Liquid
[2] = 308.15 K; 101.33 kPa; Liquid; vibrating tube

OCCO [1,2-ethanediol] + C[S+](C)[O-]
[1]
Details	excess molar enthalpy [kcal/mol]
x1 = 0.0506	-0.0466
x1 = 0.0963	-0.0878
x1 = 0.1378	-0.119
x1 = 0.1757	-0.147
x1 = 0.2423	-0.181
x1 = 0.2989	-0.203
x1 = 0.39	-0.219
x1 = 0.4601	-0.218
x1 = 0.5612	-0.198
x1 = 0.6574	-0.169
x1 = 0.7189	-0.147
x1 = 0.7933	-0.118
x1 = 0.8365	-0.0991
x1 = 0.8847	-0.0728
x1 = 0.911	-0.0595
x1 = 0.9388	-0.044
x1 = 0.9685	-0.0237

C[S+](C)[O-] [dimethyl sulfoxide]
Details	mass density [kg/m3]
[2]	1085.5

CC(O)CO (configuration not stated) [1,2-propanediol]
Details	mass density [kg/m3]
[2]	1026.15

OCCOCCOCCO [triethylene glycol]
Details	mass density [kg/m3]
[2]	1112.1

OCCOCCOCCO [triethylene glycol] + C[S+](C)[O-]
[1]
Details	excess molar enthalpy [kcal/mol]
x1 = 0.0217	-0.0287
x1 = 0.0425	-0.0537
x1 = 0.0625	-0.0751
x1 = 0.0816	-0.0944
x1 = 0.1176	-0.125
x1 = 0.1509	-0.15
x1 = 0.2104	-0.181
x1 = 0.2621	-0.198
x1 = 0.3477	-0.215
x1 = 0.4444	-0.214
x1 = 0.516	-0.207
x1 = 0.6153	-0.186
x1 = 0.6807	-0.168
x1 = 0.7618	-0.137
x1 = 0.81	-0.117
x1 = 0.8648	-0.0917
x1 = 0.9275	-0.0526

OCCOCCO [diethylene glycol]
Details	mass density [kg/m3]
[2]	1105.65

CC(O)CO (configuration not stated) [1,2-propanediol] + C[S+](C)[O-]
[1]
Details	excess molar enthalpy [kcal/mol]
x2 = 0.0389	-0.0194
x2 = 0.0748	-0.039
x2 = 0.1082	-0.0531
x2 = 0.1392	-0.0645
x2 = 0.1921	-0.0847
x2 = 0.2444	-0.0962
x2 = 0.3267	-0.104
x2 = 0.3928	-0.101
x2 = 0.4925	-0.0926
x2 = 0.5929	-0.0788
x2 = 0.66	-0.0691
x2 = 0.7444	-0.0543
x2 = 0.7952	-0.0446
x2 = 0.8535	-0.0323
x2 = 0.8859	-0.0234
x2 = 0.9209	-0.0155
x2 = 0.9588	-0.00719

OCCOCCO [diethylene glycol] + C[S+](C)[O-]
[1]
Details	excess molar enthalpy [kcal/mol]
x1 = 0.0303	-0.0251
x1 = 0.0588	-0.0476
x1 = 0.0857	-0.0664
x1 = 0.1111	-0.0834
x1 = 0.1579	-0.109
x1 = 0.2	-0.128
x1 = 0.2727	-0.15
x1 = 0.3332	-0.159
x1 = 0.4285	-0.162
x1 = 0.5295	-0.154
x1 = 0.6	-0.145
x1 = 0.6923	-0.124
x1 = 0.75	-0.112
x1 = 0.8182	-0.0909
x1 = 0.8571	-0.0762
x1 = 0.9	-0.0599
x1 = 0.9474	-0.0347

From the NIST ThermoML archive (doi:10.1021/je034007i)
